Data as given in the supplement of paper PMC13380429.

Legend:
Settings in all cases: 72 h
HepG2 [1] = assay: cell viability relative to DMSO; higher = less toxic
Caco-2 [2] = assay: as above
Vero E6 [3] = assay: as above
U2OS [4] = assay: as above
Calu-3 [5] = assay: as above
HepG2 [6] = assay: drug sensitivity score (DSS) for viability; higher = more toxic; extreme values may be limits of the assay
Caco-2 [7] = assay: as above
Vero E6 [8] = assay: as above
U2OS [9] = assay: as above
Calu-3 [10] = assay: as above
HepG2 [11] = assay: relative viability EC50 (midpoint between 100% and the lowest measured viability); higher = less toxic
Caco-2 [12] = assay: as above
Vero E6 [13] = assay: as above
U2OS [14] = assay: as above
Calu-3 [15] = assay: as above

Compound | cell viability (HepG2 [1]; 1 nM) | cell viability (HepG2 [1]; 10 nM) | cell viability (HepG2 [1]; 100 nM) | cell viability (HepG2 [1]; 1000 nM) | cell viability (HepG2 [1]; 10000 nM) | cell viability (Caco-2 [2]; 1 nM) | cell viability (Caco-2 [2]; 10 nM) | cell viability (Caco-2 [2]; 100 nM) | cell viability (Caco-2 [2]; 1000 nM) | cell viability (Caco-2 [2]; 10000 nM) | cell viability (Vero E6 [3]; 1 nM) | cell viability (Vero E6 [3]; 10 nM) | cell viability (Vero E6 [3]; 100 nM) | cell viability (Vero E6 [3]; 1000 nM) | cell viability (Vero E6 [3]; 10000 nM) | cell viability (U2OS [4]; 1 nM) | cell viability (U2OS [4]; 10 nM) | cell viability (U2OS [4]; 100 nM) | cell viability (U2OS [4]; 1000 nM) | cell viability (U2OS [4]; 10000 nM) | cell viability (Calu-3 [5]; 1 nM) | cell viability (Calu-3 [5]; 10 nM) | cell viability (Calu-3 [5]; 100 nM) | cell viability (Calu-3 [5]; 1000 nM) | cell viability (Calu-3 [5]; 10000 nM) | drug sensitivity score (HepG2 [6]) | drug sensitivity score (Caco-2 [7]) | drug sensitivity score (Vero E6 [8]) | drug sensitivity score (U2OS [9]) | drug sensitivity score (Calu-3 [10]) | relative viability EC50 (HepG2 [11]) | relative viability EC50 (Caco-2 [12]) | relative viability EC50 (Vero E6 [13]) | relative viability EC50 (U2OS [14]) | relative viability EC50 (Calu-3 [15])
O=C(/C=C/N1C[C@H]2C[C@@H]1CN2c1ccccn1)c1ccccc1O [PFI-3] | 97.3% | 99.8% | 110% | 99.5% | 96.2% | 92% | 94.5% | 88.5% | 98.1% | 106% | 99.3% | 90.4% | 99.6% | 93.8% | 104% | 92.6% | 99.7% | 96.1% | 99.7% | 101% | 101% | 115% | 98.1% | 96.1% | 107% | 0 | 0 | 0 | 0 | 0 | > 10 µM | > 10 µM | > 10 µM | > 10 µM | > 10 µM
COc1c(C)c2c(c(O)c1C/C=C(\C)CCC(=O)O)C(=O)OC2 [mycophenolic-acid] | 101% | 95.7% | 95.2% | 57.5% | 31.8% | 93.1% | 102% | 103% | 77.5% | 47% | 96.1% | 103% | 96.2% | 75.2% | 34.2% | 98.3% | 102% | 94.7% | 62.6% | 21.9% | 96.3% | 96.2% | 97.2% | 71.3% | 49.5% | 9 | 5.8 | 6.7 | 8.7 | 6 | 0.686 µM | 1.13 µM | 1.29 µM | 1.03 µM | 0.814 µM
N=C1CCCN1Cc1[nH]c(=O)[nH]c(=O)c1Cl [tipiracil] | 100% | 89.6% | 96.5% | 101% | 98.7% | 96.7% | 93.4% | 93.2% | 98.1% | 98.6% | 97.6% | 95.9% | 94.9% | 92.6% | 104% | 97.4% | 99% | 93.8% | 97.5% | 100% | 94.2% | 102% | 89.4% | 97.4% | 101% | 0 | 0 | 0 | 0 | 0 | > 10 µM | > 10 µM | > 10 µM | > 10 µM | > 10 µM
O=[N+]([O-])c1cc2nc(O)c(O)nc2cc1[N+](=O)[O-] [DNQX] | 102% | 101% | 95.6% | 101% | 102% | 86.4% | 94.2% | 97.4% | 89.3% | 94.4% | 86.8% | 96.1% | 89.2% | 95.8% | 102% | 104% | 96.8% | 101% | 93.6% | 98% | 96.8% | 96.3% | 100% | 97.4% | 94.3% | 0 | 0 | 0 | 0 | 0 | > 10 µM | > 10 µM | > 10 µM | > 10 µM | > 10 µM
O=c1[nH]c2ccccc2n1CCCN1CCN(C(c2ccccc2)c2ccccc2)CC1 [oxatomide] | 97.7% | 104% | 114% | 81.7% | 92.2% | 117% | 98.6% | 99.1% | 112% | 83.7% | 106% | 93.1% | 99.9% | 91.7% | 95.6% | 100% | 102% | 94.1% | 97.1% | 106% | 107% | 96.1% | 105% | 99.2% | 101% | 1.9 | 0.1 | 0 | 0 | 0 | > 10 µM | > 10 µM | > 10 µM | > 10 µM | > 10 µM
COc1ccc2c(c1)C(=O)N(CCc1ccc(S(=O)(=O)NC(=O)NC3CCCCC3)cc1)C(=O)C2(C)C [gliquidone] | 103% | 98.9% | 96.4% | 106% | 106% | 88.1% | 95.3% | 109% | 102% | 101% | 97.8% | 99.5% | 92.3% | 100% | 94.9% | 91% | 89.3% | 102% | 87.1% | 95.9% | 106% | 96.5% | 99.9% | 104% | 106% | 0 | 0 | 0 | 0 | 0 | > 10 µM | > 10 µM | > 10 µM | > 10 µM | > 10 µM
C[C@]12COC(=O)C[C@@H]1CC[C@@H]1[C@@H]2CC[C@@]2(C)[C@H]1CC[C@]2(C)O [Oxandrolone] | 102% | 94.9% | 104% | 99.4% | 90.8% | 106% | 101% | 100% | 99.4% | 106% | 104% | 98% | 98.4% | 104% | 98.2% | 101% | 99.4% | 99.7% | 102% | 104% | 98.3% | 98.4% | 96.8% | 103% | 110% | 0 | 0 | 0 | 0 | 0 | > 10 µM | > 10 µM | > 10 µM | > 10 µM | > 10 µM
C[N+](C)(CCOc1ccccc1)Cc1ccccc1 [bephenium-hydroxynaphthoate] | 100% | 98.4% | 92.3% | 96.8% | 100% | 96.1% | 99.4% | 106% | 102% | 102% | 98.2% | 96.9% | 94.8% | 92.6% | 103% | 93.7% | 99.4% | 93.5% | 101% | 102% | 102% | 103% | 90% | 98% | 102% | 0 | 0 | 0 | 0 | 0 | > 10 µM | > 10 µM | > 10 µM | > 10 µM | > 10 µM
c1ccc(CC2=NCCN2)cc1 [tolazoline] | 97.3% | 102% | 101% | 108% | 99.9% | 103% | 93.1% | 97.5% | 95% | 98% | 108% | 111% | 104% | 106% | 98.6% | 99.9% | 97.9% | 102% | 101% | 101% | 103% | 103% | 87.3% | 98.4% | 114% | 0 | 0 | 0 | 0 | 0 | > 10 µM | > 10 µM | > 10 µM | > 10 µM | > 10 µM
COC1=CC(=O)C[C@@H](C)[C@]12Oc1c(Cl)c(OC)cc(OC)c1C2=O [griseofulvin] | 86.3% | 95.5% | 95.6% | 101% | 90% | 106% | 88.5% | 93.6% | 103% | 88.1% | 104% | 98.8% | 91.1% | 107% | 94.8% | 102% | 100% | 102% | 98.8% | 96.2% | 106% | 95.7% | 98% | 107% | 108% | 0 | 0 | 0 | 0 | 0 | > 10 µM | > 10 µM | > 10 µM | > 10 µM | > 10 µM
CNC(=O)c1nn(C)c2c1C(C)(C)Cc1cnc(Nc3ccc(N4CCN(C)CC4)cc3)nc1-2 | 89.9% | 102% | 75.7% | 37.7% | 16.5% | 98.1% | 92.2% | 90.3% | 53% | 28.9% | 91.9% | 96.1% | 85% | 31.2% | 6.4% | 99.7% | 93.6% | 97.3% | 47.4% | 3.6% | 95.1% | 100% | 89% | 67.9% | 22.1% | 14.5 | 10.2 | 14.8 | 11.6 | 7.9 | 0.288 µM | 0.518 µM | 0.409 µM | 0.898 µM | 1.2 µM
CC(C)(C)[C@]1(O)CCN2C[C@H]3c4ccccc4CCc4cccc(c43)[C@@H]2C1 [butaclamol] | 108% | 100% | 96.3% | 90% | 95.5% | 101% | 94.3% | 93.9% | 99.6% | 94.5% | 98.4% | 103% | 104% | 98% | 102% | 95.5% | 101% | 92% | 101% | 90.2% | 90% | 99.7% | 97.2% | 112% | 94.9% | 0 | 0 | 0 | 0 | 0 | > 10 µM | > 10 µM | > 10 µM | > 10 µM | > 10 µM
S=C=Nc1ccc(N=C=S)cc1 [bitoscanate] | 97.9% | 82.6% | 103% | 91% | 105% | 91.8% | 96.6% | 101% | 106% | 103% | 90.7% | 93.6% | 93.5% | 92.2% | 104% | 94.2% | 101% | 96.3% | 100% | 105% | 104% | 103% | 94.6% | 95.3% | 102% | 0 | 0 | 0 | 0 | 0 | > 10 µM | > 10 µM | > 10 µM | > 10 µM | > 10 µM
C[N+]1(C)CCC(OC(=O)C(O)(c2ccccc2)C2CCCC2)C1 (stereo not given) [glycopyrrolate] | 108% | 99.3% | 97.4% | 92.3% | 105% | 104% | 98.6% | 94.8% | 103% | 96% | 106% | 100% | 100% | 99.7% | 98.3% | 101% | 102% | 98% | 99.5% | 95.1% | 102% | 105% | 97.7% | 102% | 98.5% | 0 | 0 | 0 | 0 | 0 | > 10 µM | > 10 µM | > 10 µM | > 10 µM | > 10 µM
